# In patent US20210198277A1, “AMINE-SUBSTITUTED ARYL OR HETEROARYL COMPOUNDS” (Epizyme, Inc., priority 2016, published 2021):
# Molecular target: T1, EHMT1 (Homo sapiens, UniProt Q9H9B1)
# T1 sequence (Q9H9B1 1-1298): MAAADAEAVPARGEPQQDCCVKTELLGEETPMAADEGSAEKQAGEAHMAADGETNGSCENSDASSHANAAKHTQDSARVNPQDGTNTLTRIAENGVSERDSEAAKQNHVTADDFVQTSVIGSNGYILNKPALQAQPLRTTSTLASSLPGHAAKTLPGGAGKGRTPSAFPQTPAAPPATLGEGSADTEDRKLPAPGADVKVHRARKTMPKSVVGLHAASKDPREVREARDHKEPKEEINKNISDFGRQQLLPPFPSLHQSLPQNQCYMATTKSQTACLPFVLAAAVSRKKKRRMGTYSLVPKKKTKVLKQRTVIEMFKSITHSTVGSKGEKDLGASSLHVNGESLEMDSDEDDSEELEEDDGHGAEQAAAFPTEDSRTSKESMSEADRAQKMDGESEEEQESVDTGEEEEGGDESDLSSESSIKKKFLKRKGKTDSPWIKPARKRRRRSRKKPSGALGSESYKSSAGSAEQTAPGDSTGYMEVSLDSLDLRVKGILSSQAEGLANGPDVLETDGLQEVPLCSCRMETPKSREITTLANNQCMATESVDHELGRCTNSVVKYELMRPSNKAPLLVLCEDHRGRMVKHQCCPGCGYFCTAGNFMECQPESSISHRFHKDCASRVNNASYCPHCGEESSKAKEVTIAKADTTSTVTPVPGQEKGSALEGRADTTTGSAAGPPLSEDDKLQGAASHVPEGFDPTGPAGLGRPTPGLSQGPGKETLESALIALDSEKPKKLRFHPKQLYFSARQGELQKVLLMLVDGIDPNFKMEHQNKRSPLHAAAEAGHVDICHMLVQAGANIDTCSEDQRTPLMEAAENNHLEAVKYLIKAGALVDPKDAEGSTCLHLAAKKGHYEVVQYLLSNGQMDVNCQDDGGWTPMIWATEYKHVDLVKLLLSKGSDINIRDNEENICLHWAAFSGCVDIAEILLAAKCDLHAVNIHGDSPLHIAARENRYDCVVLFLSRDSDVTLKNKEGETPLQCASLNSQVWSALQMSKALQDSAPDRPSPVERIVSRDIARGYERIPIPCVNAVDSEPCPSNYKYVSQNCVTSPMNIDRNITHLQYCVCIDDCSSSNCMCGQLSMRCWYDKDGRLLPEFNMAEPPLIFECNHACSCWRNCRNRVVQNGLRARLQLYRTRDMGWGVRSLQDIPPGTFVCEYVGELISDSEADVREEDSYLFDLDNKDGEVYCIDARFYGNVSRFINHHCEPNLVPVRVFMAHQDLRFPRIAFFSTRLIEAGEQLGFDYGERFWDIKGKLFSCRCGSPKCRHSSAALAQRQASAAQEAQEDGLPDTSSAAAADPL
# Test: EHMT1 enzyme assay on peptide substrate (EHMT1 PEP)
# Type: biochemical
# Conditions: Table VI; read-out: EHMT1 PEP IC50
row,SMILES,IC50 [nM]
1,COc1cc2c(C)cc(N3CCCCC3)nc2cc1OCCCN1CCCC1 [Compound 810],< 100
2,COc1cc2c(C)nc(N3CCCCC3)nc2cc1OCCCN1CCCC1 [Compound 811],> 10000
3,COc1cc2c(C3CCN(C)CC3)cc(N3CCCCC3)nc2cc1OCCCN1CCCC1 [Compound 812],< 100
4,CNc1cc(C)nc(Nc2ccc(OC)c(CN[C@H]3CCNC3)c2)n1 [Compound 813],100 to 1000
5,CNc1cc(C)nc(Nc2ccc(OC)c(CN[C@@H]3CCNC3)c2)c1 [Compound 814],1000 to 10000
6,CNc1cc(C2CCCCC2)c2cc(OC)c(OCCCN3CCCC3)cc2n1 [Compound 816],< 100
7,CNc1cc(C(C)C)c2cc(OC)c(OCCCN3CCCC3)cc2n1 [Compound 817],< 100
8,COc1cc2c(C3CCOCC3)cc(=O)[nH]c2cc1OCCCN1CCCC1 [Compound 822],> 10000
9,CNc1cc(CC2CCOCC2)c2cc(OC)c(OCCCN3CCCC3)cc2n1 [Compound 823],< 100
10,COc1cc2c(C3CCOCC3)cc(N3CCCCC3)nc2cc1OCCCN1CCCC1 [Compound 824],100 to 1000
11,COc1cc2c(C3CCOCC3)cc(N(C)C)nc2cc1OCCCN1CCCC1 [Compound 825],100 to 1000
12,CNc1cc(C2CCN(CCC(F)(F)F)CC2)c2cc(OC)c(OCCCN3CCCC3)cc2n1 [Compound 832],< 100
13,CNc1cc(C2CCN(CC(F)(F)F)CC2)c2cc(OC)c(OCCCN3CCCC3)cc2n1 [Compound 833],< 100
14,COc1cc2c(C3CCN(C(C)=O)CC3)cc(C)nc2cc1OCCCN1CCCC1 [Compound 834],100 to 1000
15,CCS(=O)(=O)N1CCC(c2cc(C)nc3cc(OCCCN4CCCC4)c(OC)cc23)CC1 [Compound 836],100 to 1000
16,COc1cc2c(C3CCN(CC(F)(F)F)CC3)cc(C)nc2cc1OCCCN1CCCC1 [Compound 837],100 to 1000
17,COc1cc2c(C3CCN(CCC(F)(F)F)CC3)cc(C)nc2cc1OCCCN1CCCC1 [Compound 838],< 100
18,CNc1cc(C2CCN(CCOC)CC2)c2cc(OC)c(OCCCN3CCCC3)cc2n1 [Compound 839],< 100
19,COc1cc2c(C3CCN(CC(F)(F)F)CC3)nc(C)nc2cc1OCCCN1CCCC1 [Compound 841],> 10000
20,CNc1cc(C)nc(Nc2ccc(OC)c(C#CC3CCNC3)c2)n1 (stereo not drawn) [Compound 845],< 100
21,CNc1cc(C)nc(Nc2ccc(OC)c(C#CC3CCCN3)c2)n1 (stereo not drawn) [Compound 846],< 100
22,CNc1cc(C)nc(Nc2ccc(OC)c(C#CC3CCN(C)C3)c2)n1 (stereo not drawn) [Compound 847],< 100
23,CNc1cc(C)nc(Nc2ccc(OC)c(C#CC3CCCN3C)c2)n1 (stereo not drawn) [Compound 848],< 100
24,CNC(=O)c1cc(C)nc(Nc2ccc(OC)c(OCCCN3CCCC3)c2)n1 [Compound 854],> 10000
25,CNc1cc(C)c2cc(OC)c(C#CCN3CCCC3)cc2n1 [Compound 859],< 100
26,CNc1cc(C)nc(Nc2ccc(OC)c(C#CCN3CCN(C)CC3)c2)n1 [Compound 860],> 10000
27,COc1cc2c(C3CCN([C@@H]4CCOC4)CC3)cc(C)nc2cc1OCCCN1CCCC1 [Compound 863],< 100
